Laboratory results as given in patent publication US20250161243A1, “MEF2 TRANSCRIPTIONAL ACTIVATORS TO TREAT NEUROLOGIC CONDITIONS” (The Scripps Research Institute, priority 2022, published 2025).
pEC50: −log10 of the molar value. “Also recorded” adds a separate entry of the source.

How the values were obtained:
[1] = system: MEF2 transcriptional activity; assay: MEF2 transcriptional activity screen (Luciferase-MEF2 reporter in human neural progenitor cells); format: cell-based
[2] = system: MEF2 transcriptional activity; assay: Confirmatory screen and Renilla counter-screen of MEF2 reporter activity; format: cell-based, human; conditions: n=3
Source text: FIG. 4. Dose-response for hits in the Renilla counterscreen. Dose response plots for AR-42, that had high EC50 and >3-fold increase in MEF2 activity in the primary screen. (n=3).
(§1) In an embodiment, a compound for use in a method as described herein is AR-42 (Table 1).

[3] = system: MEF2C haploinsufficiency syndrome (MCHS) patient hiPSC-derived cerebrocortical neurons; assay: Calcium events (fluo-4AM) in MCHS patient hiPSC-derived cerebrocortical neurons; format: cell-based, human; conditions: MCHS neurons against isogenic WT control
Source text: FIGS. 6A and 6B. AR-42 decreases hyperelectrical activity in MEF2C haploinsufficiency syndrome (MCHS) patient hiPSC-derived cerebrocortical neurons. (FIG. 5A) Representative traces of calcium events using fluo-4AM calcium-sensitive dye in hiPSC-derived neurons. […] (FIG. 5B) Quantification of calcium event frequency. Data represent mean±SEM. Sample size was 5 neurons imaged per coverslip in 3 coverslips. * P<0.05 by one-way ANOVA and Tukey post-hoc test.
as §1

[4] = system: MEF2C haploinsufficient (MHCS) patient hiPSC-derived cerebrocortical neurons; assay: MAP2 protein expression (immunoblot) in MCHS patient hiPSC-derived cerebrocortical neurons; format: cell-based, human; conditions: MCHS neurons versus WT control, in vitro
Source text: FIGS. 5A and 5B. […] (FIG. 4A) MAP2 protein expression in neurons treated with AR-42 and (n=3 in 2 independent experiments). (FIG. 4B) Representative immunoblot of MAP2 expression and GAPDH loading control. Data represented as mean±SEM. * P<0.05 by one-way ANOVA and Tukey post-hoc test.
Additionally, the neurons of patients with MEF2C haploinsufficiency syndrome (MCHS) display shorter neurites. The neuronal marker MAP2 was monitored as a biomarker for neurites in the MCHS hiPSC-derived neurons versus WT control: compromised levels of MAP2 were found, but they were corrected by treatment with AR-42 in vitro (FIGS. 6A and 6B). These types of assays correlate well with improvement in behavioral studies in this type of ASD/ID, as illustrated by the use mouse models of MCHS (S. Tu (2017)).

pEC50 ([1]; Homo sapiens, concentration for half-maximal activity derived from the hill equation model, MEF2 luciferase reporter, read-out: qAC50): 6.36
Compound: CC(C)[C@H](C(=O)Nc1ccc(C(=O)NO)cc1)c1ccccc1 [AR-42]
increase in MEF2 activity in the primary screen ([1]; primary screen, 10 μM): > 3 fold
MEF2 transcriptional activity corrected with control Renilla-based (non-specific) reporter [2]: increased MEF2 transcriptional activity
aberrant hyperactivity (Ca^2+ signaling, calcium event frequency) [3]: normalizes this aberrant, excessive activity; also recorded: decreased aberrant hyperactivity
MAP2 levels (neurite biomarker) [4]: increase MAP2 levels; also recorded: corrected
